Measurements: patent publication US20220009914A1, “Analogs of Nitrofuran Antibiotics to Combat Resistance” (The Trustees of Indiana University, priority 2020, published 2022)
Read-outs that look alike come from different tables or passages of the source.

Tests used:
E. coli GroEL/ES = biological target: T1, E. coli GroEL/ES (Escherichia coli, UniProt P0A6F5); assay: GroEL/ES-mediated dMDH refolding assay in the presence of E. coli NfsB nitroreductase; type: biochemical
T1 construct: made in house; host or cells: GroEL in NEB 5-alpha E. coli; GroES in E. coli BL21 (DE3)
Description: Evaluating compounds for inhibition in the GroEL/ES-mediated dMDH refolding assay and native MDH activity counter-screen in the presence of E. coli NfsB nitroreductase. These assays were performed nearly identically to those mentioned above, but with a couple distinct modifications. For both assays, 10 μg/mL of the E. coli NfsB nitroreductase enzyme (Sigma product #N9284) was added to the initial GroEL/ES-dMDH solution. For the GroEL/ES-dMDH refolding assay, after stamping with compounds, 10 μL of a 2.4 mM NADH solution was added, followed by a 10 minute incubation period at 37° C. to bioactivate the nitrofuran analogs. The remainder of the assay was conducted as in our standard protocol where no NfsB nitroreductase was present. […] For the native MDH activity counter-screen in the presence of E. coli NfsB nitroreductase, the assay was performed as described above for the GroEL/ES-dMDH refolding assay with NfsB; however, compound addition to the assay plates was conducted after the EDTA quench step, followed by a 10 minute incubation period at 37° C. to bioactivate the nitrofuran analogs. […] Results presented represent the averages of IC50 values obtained from at least four replicates in each assay.
Evaluating analogs for inhibiting GroEL/ES-mediated substrate refolding functions in the presence of the E. coli NfsB type-1 nitroreductase. […] However, our standard GroEL/ES-mediated refolding assays and native substrate reporter counter-screens were conducted without nitroreductases present.

[1] = system: Enterobacter cloacae strain CDC 442-68 (ATCC #13047); assay: bacterial proliferation assay, E. cloacae; type: cell-based; settings: ATCC13047, read-out: Bacterial Proliferation EC50 E. cloacae
Description: (§1) All compounds were evaluated for inhibiting the proliferation of E. coli and each of the ESKAPE bacteria. Results presented represent the averages of EC50 values obtained from at least four replicates. Evaluating compounds for inhibition of bacterial cell proliferation.
(§2) Growth Media: E. coli were grown with LB medium and all ESKAPE bacteria were grown in Brain Heart Infusion (BHI) medium (Becton, Dickinson and Company), with all liquid cultures supplemented with 25 mg/L Ca^2+ and 12.5 mg/L Mg^2+ to mimic physiological free concentrations of these cations. A 10 mg/mL Ca^2+ stock solution was prepared by dissolving 1.84 g of CaCl2.2H2O in 50 mL of deionized water, and a 10 mg/mL Mg^2+ stock solution was prepared by dissolving 4.18 g of MgCl2.6H2O in 50 mL deionized water—filter sterilized using 0.2 μm cellulose-acetate filters. 2.5 mL of the sterile 10 mg/mL Ca^2+ stock and 1.25 mL of the sterile 10 mg/mL Mg^2+ stock solutions were added per 1 L of autoclaved LB or BHI media to obtain 25 mg/L Ca^2+ and 12.5 mg/L Mg^2+ ions, respectively.
(§3) General Assay Protocol: Stock bacterial cultures were streaked onto LB or BHI agar plates and grown overnight at 37° C. Fresh aliquots of cation supplemented media were inoculated with single bacterial colonies and the cultures were grown overnight at 37° C. with shaking (240 rpm). The following morning, cultures were diluted 10-fold into fresh media and grown at 37° C. until bacteria had reached mid-log phase growth (OD600˜0.4-0.6). The cultures were then diluted into fresh media to achieve final OD600 readings of 0.017. Aliquots of these diluted cultures (30 μL) were added to clear, flat-bottom 384-well polystyrene plates that were previously stamped with 0.5 μL of test compounds in 20 μL of media (yielding initial OD600=0.01 bacterial cultures). All compounds were tested in dose-response with concentration ranges during the proliferation assays from 100 μM to 46 nM (3-fold dilution series). A second set of baseline control plates were prepared analogously, but without any bacteria added, to correct for possible compound absorbance and/or precipitation. […] Plates were then read at 600 nm using a Molecular Devices SpectraMax Plus384 microplate reader. […] Results presented represent the averages of EC50 values obtained from at least four replicates.
(§4) Evaluating analogs for inhibiting the growth of E. coli and the ESKAPE bacteria. Analogs were initially tested for antibacterial efficacy against representative strains of antibiotic-sensitive E. coli and the ESKAPE bacteria. To determine compound efficacy, bacterial proliferation assays were carried out in liquid media culture supplemented with physiological concentrations of free calcium and magnesium cations. For these assays, bacterial cultures (OD600=0.01) were exposed to test compounds in 8-point, 3-fold dilution series (100 μM to 46 nM concentration range), in 384-well plates. After addition of compounds to cultures, the plates were sealed with Breathe-Easy gas permeable membranes and allowed to grow to mid-log phase (OD600˜0.4-0.6), whereupon final OD600 readings were taken to assess for bacterial growth and inhibition.

[2] = system: Staphylococcus aureus strain Seattle 1945 (ATCC #25923); assay: bacterial proliferation assay, S. aureus; type: cell-based; settings: read-out: Bacterial Proliferation EC50 S. aureus
Description: as §1, §2, §3, §4

[3] = system: Pseudomonas aeruginosa strain NCTC 10332 (ATCC #10145); assay: bacterial proliferation assay, P. aeruginosa; type: cell-based; settings: read-out: Bacterial Proliferation EC50 P. aeruginosa
Description: as §1, §2, §3, §4

[4] = system: Enterococcus faecium strain NCTC 7171 (ATCC #19434); assay: bacterial proliferation assay, E. faecium; type: cell-based; settings: read-out: Bacterial Proliferation EC50 E. faecium
Description: as §1, §2, §3, §4

[5] = Staphylococcus aureus, ATCC25923
[6] = with E. coli NfsB nitroreductase, read-out: NfsB-GroEL/ES-dMDH Refolding IC50

T1 sequence (P0A6F5 2-548): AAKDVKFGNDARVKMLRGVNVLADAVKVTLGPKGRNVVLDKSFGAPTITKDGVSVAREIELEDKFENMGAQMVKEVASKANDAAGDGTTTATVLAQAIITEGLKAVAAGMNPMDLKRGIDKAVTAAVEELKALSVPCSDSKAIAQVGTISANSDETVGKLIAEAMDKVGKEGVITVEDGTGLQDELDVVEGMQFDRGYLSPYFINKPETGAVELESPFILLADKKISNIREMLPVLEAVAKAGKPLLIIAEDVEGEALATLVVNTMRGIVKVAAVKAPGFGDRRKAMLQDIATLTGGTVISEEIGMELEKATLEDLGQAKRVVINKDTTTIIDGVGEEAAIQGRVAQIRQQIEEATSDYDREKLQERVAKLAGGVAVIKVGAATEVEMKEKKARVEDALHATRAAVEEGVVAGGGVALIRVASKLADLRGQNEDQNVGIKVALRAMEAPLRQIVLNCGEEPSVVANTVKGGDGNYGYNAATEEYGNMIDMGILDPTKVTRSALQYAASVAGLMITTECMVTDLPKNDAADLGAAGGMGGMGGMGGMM

SMILES | IC50 (E. coli GroEL/ES) [µM] | EC50 [1] [µM] | EC50 [2, 5] [µM] | EC50 [3] [µM] | EC50 [4] [µM] | EC50 [2] [µM] | IC50 (E. coli GroEL/ES; [6]) [µM] | GroEL/ES inhibition in words (E. coli GroEL/ES; in the presence of E. coli NfsB)
O=C(N/N=C/c1ccc(O)c2ncccc12)c1ccccc1Oc1ccccc1 [Compound 10, N′-((8-hydroxyquinolin-5-yl)methylene)-2-phenoxybenzohydrazide] | 15 | > 100 | > 100 | 81 | > 100 | – | – | –
O=C(N/N=C/c1ccc(O)c2ncccc12)c1ccc(NS(=O)(=O)c2cccs2)cc1 [Compound 13, N-(4-(2-((8-hydroxyquinolin-5-yl)methylene)hydrazine-1-carbonyl)phenyl)thiophene-2-sulfonamide] | 1.9 | > 100 | > 100 | > 100 | > 100 | – | – | –
CN(C)c1ccc(C(=O)N/N=C/c2ccc(O)c3ncccc23)cc1 [Compound 8, 4-(dimethylamino)-N′-((8-hydroxyquinolin-5-yl)methylene)benzohydrazide] | 25 | > 100 | 99 | > 100 | > 100 | – | – | –
COc1ccc(C(=O)N/N=C/c2cccc3ncccc23)cc1 [Compound 31, 4-methoxy-N′-(quinolin-5-ylmethylene)benzohydrazide] | > 83 | > 100 | > 100 | > 100 | > 100 | – | – | –
COc1ccc(C(=O)N/N=C/c2ccc(O)c3ncccc23)cc1 [Compound 1, N′-((8-hydroxyquinolin-5-yl)methylene)-4-methoxybenzohydrazide] | 66 | 100 | – | – | > 100 | 87 | – | –
O=C(N/N=C/c1ccc(O)c2ncccc12)c1cccc2ccccc12 [Compound 9, N′-((8-hydroxyquinolin-5-yl)methylene)-1-naphthohydrazide] | 7.7 | > 100 | 56 | > 100 | > 100 | – | – | –
CCN(CC)S(=O)(=O)c1cccc(C(=O)N/N=C/c2ccc(O)c3ncccc23)c1 [Compound 12, N,N-diethyl-3-(2-((8-hydroxyquinolin-5-yl)methylene)hydrazine-1-carbonyl)benzenesulfonamide] | 21 | > 100 | > 100 | 85 | > 100 | – | – | –
COc1ccc(C(=O)N/N=C/c2ccc([N+](=O)[O-])o2)cc1 [Compound 20, 4-methoxy-N′-((5-nitrofuran-2-yl)methylene)benzohydrazide] | – | > 100 | 8.1 | > 100 | 22 | – | 10 | –
CCN(CC)S(=O)(=O)c1cccc(C(=O)N/N=C/c2ccc([N+](=O)[O-])o2)c1 [Compound 25, N,N-diethyl-3-(2-((5-nitrofuran-2-yl)methylene)hydrazine-1-carbonyl)benzenesulfonamide] | 6 | > 100 | 9.6 | > 100 | > 100 | – | – | –
O=C(N/N=C/c1ccc([N+](=O)[O-])o1)c1cccs1 [Compound 16, N′-((5-nitrofuran-2-yl)methylene)thiophene-2-carbohydrazide] | – | 40 | 7.1 | > 100 | 24 | – | 7.7 | –
CN(C)c1ccc(C(=O)N/N=C/c2ccc([N+](=O)[O-])o2)cc1 [Compound 21, 4-(dimethylamino)-N′-((5-nitrofuran-2-yl)methylene)benzohydrazide] | – | > 100 | 34 | > 100 | > 100 | – | 12 | –
O=C(N/N=C/c1ccc([N+](=O)[O-])o1)c1ccncc1 [Compound 19, N′-((5-nitrofuran-2-yl)methylene)isonicotinohydrazide] | – | 73 | 9.5 | > 100 | 13 | – | 23 | –
O=C(N/N=C/c1ccc([N+](=O)[O-])o1)c1ccc(NS(=O)(=O)c2cccs2)cc1 [Compound 26, N-(4-(2-((5-nitrofuran-2-yl)methylene)hydrazine-1-carbonyl)phenyl)thiophene-2-sulfonamide] | 6 | > 100 | 11 | > 100 | 11 | – | – | –
O=C(N/N=C/c1ccc(O)c2ncccc12)c1ccccc1 [Compound 5, N′-((8-hydroxyquinolin-5-yl)methylene)benzohydrazide] | > 83 | 80 | 69 | > 100 | > 100 | – | – | –
O=Cc1ccc([N+](=O)[O-])o1 [Compound 41, reference compound] | > 83 | 13 | 5.8 | > 100 | 20 | – | – | –
O=C(N/N=C/c1cccc2ccccc12)c1ccccc1 [Compound 34, N′-(naphthalen-1-ylmethylene)benzohydrazide] | > 83 | > 100 | > 100 | > 100 | > 100 | – | – | –
O=[N+]([O-])c1ccc(O)c2ncccc12 [Nitroxoline, reference compound] | 27 | 6.6 | 9.5 | 99 | 18 | – | – | –
O=C(N/N=C/c1ccc(O)c2ncccc12)c1cccs1 [Compound 3, N′-((8-hydroxyquinolin-5-yl)methylene)thiophene-2-carbohydrazide] | 29 | 92 | 63 | > 100 | > 100 | – | – | –
O=C(N/N=C/c1ccc(O)c2ncccc12)c1ccc(O)cc1 [Compound 7, 4-hydroxy-N′-((8-hydroxyquinolin-5-yl)methylene)benzohydrazide] | 16 | 97 | 48 | > 100 | > 100 | – | – | –
O=C(N/N=C/c1ccc([N+](=O)[O-])o1)c1ccc(O)cc1 [Nifuroxazide, reference compound] | – | 54 | 16 | > 100 | 8.1 | – | 19 | weak to moderate GroEL/ES inhibitors
O=C(N/N=C/c1ccc(O)cc1)c1ccccc1 [Compound 36, N′-(4-hydroxybenzylidene)benzohydrazide] | > 83 | > 100 | > 100 | > 100 | > 100 | – | – | –
O=C(N/N=C/c1ccc([N+](=O)[O-])o1)c1ccccc1Oc1ccccc1 [Compound 23, N′-((5-nitrofuran-2-yl)methylene)-2-phenoxybenzohydrazide] | – | > 100 | 5.2 | > 100 | 11 | – | – | –
